The text below walks through data of US20260102501A1, “ANTI-CANCER NUCLEAR HORMONE RECEPTOR-TARGETING COMPOUNDS” (Nuvation Bio Inc., priority 2022, published 2026).

Changes are numbered by the printed parent chain. Structures can show the parent of a compound that is named as a salt. Where two headings read alike, the source gives them in different places.

Broadly, the IC50 is the point on the concentration scale where inhibition reaches its midpoint.

Assay [1] has as its target T1, full-length androgen receptor (HEK293 cells stably expressing) (Homo sapiens, UniProt P10275).
T1 sequence (P10275 1-920): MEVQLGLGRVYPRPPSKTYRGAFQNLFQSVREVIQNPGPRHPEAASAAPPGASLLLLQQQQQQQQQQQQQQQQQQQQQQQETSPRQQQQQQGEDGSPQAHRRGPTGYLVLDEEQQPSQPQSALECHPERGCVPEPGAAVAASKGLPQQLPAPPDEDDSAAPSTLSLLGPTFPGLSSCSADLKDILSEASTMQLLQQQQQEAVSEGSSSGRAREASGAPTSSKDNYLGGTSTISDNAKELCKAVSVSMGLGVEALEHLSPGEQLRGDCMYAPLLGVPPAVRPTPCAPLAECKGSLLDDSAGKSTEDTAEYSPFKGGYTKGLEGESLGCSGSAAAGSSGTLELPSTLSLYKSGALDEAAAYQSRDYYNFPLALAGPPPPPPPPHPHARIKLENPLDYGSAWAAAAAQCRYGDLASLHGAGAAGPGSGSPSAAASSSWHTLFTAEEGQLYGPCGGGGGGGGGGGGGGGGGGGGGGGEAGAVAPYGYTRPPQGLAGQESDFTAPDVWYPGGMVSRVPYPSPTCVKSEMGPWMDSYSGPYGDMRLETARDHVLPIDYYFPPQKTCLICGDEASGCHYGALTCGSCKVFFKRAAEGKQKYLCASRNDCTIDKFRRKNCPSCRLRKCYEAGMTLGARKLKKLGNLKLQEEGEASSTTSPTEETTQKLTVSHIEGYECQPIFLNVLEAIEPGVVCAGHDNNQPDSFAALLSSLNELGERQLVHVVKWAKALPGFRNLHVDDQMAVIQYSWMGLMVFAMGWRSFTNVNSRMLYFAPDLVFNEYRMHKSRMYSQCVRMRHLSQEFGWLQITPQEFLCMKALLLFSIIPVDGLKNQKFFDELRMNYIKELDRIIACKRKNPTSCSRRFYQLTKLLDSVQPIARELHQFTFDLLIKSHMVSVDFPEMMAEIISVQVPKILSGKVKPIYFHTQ
In words: AR antagonism assay (luciferase reporter). For orientation: Reporter assays use an easily measured gene product as a stand-in for the process of interest.

Another assay concerns LNCap cells. Kind of assay: Cell viability assay (CellTiterGlo). In kind it is cell-based. The settings on record: Homo sapiens, 144 h. On the technique in general: In ATP-based viability assays light output follows the ATP content of the culture.
The test system of a further assay is T47D cells. Kind of assay: Cell viability assay (CellTiterGlo). The class given is cell-based. The note with it: Homo sapiens, 144 h.
The subject of the next assay is IEC6 cells. Kind of assay: Cell viability assay (CellTiterGlo). The settings on record: Rattus norvegicus, IEC-6, 144 h, read-out: IEC-6 (IC50, nM).
In assay [2] the target is T2, AR (cytosol from LnCaP cells) (Homo sapiens, UniProt P10275, T878A).
T2 sequence (P10275 1-920 T878A): T1 sequence (P10275 1-920) with T878A
Kind of assay: AR binding assay (3H-R1881 displacement).
Procedure: The plate was then centrifuged at 3000 rpm for 30 minutes at 4° C.

Assay [3] addresses T3, GR (cytosol from IM-9 cells) (Homo sapiens, UniProt P04150).
T3 sequence (P04150 1-777): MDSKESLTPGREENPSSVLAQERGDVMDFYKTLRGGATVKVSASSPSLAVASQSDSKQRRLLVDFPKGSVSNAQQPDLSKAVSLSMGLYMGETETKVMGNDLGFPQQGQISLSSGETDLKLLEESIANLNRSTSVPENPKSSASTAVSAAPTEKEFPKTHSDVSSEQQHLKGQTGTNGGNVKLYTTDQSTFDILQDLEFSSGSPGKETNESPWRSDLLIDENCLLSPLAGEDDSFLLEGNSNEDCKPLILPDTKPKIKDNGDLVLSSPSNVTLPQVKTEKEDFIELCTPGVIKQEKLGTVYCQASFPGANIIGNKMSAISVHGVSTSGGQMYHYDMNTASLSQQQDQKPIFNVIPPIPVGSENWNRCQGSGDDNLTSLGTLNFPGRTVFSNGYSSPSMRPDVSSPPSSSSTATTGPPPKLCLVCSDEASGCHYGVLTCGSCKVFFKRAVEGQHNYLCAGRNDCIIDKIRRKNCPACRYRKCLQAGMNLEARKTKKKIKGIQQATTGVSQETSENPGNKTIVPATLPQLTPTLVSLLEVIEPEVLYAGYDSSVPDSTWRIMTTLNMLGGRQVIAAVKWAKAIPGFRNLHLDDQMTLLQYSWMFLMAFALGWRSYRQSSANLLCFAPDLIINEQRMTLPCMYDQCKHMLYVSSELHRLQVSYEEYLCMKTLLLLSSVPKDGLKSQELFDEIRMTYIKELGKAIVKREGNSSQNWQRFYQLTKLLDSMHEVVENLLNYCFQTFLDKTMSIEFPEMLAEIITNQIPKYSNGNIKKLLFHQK
Kind of assay: GR binding assay (3H-Dexamethasone displacement).

Where [4] appears, read: 6 days incubation, CellTiterGlo, read-out: LNCap (IC50).
[5] abbreviates: 6 days incubation, CellTiterGlo, read-out: T47D (IC50).

As for `CC[C@@]1(O)C(=O)OCc2c1cc1n(c2=O)Cc2cc3c(CN4CCN(CC5CCN(c6ccc(C(=O)N[C@H]7CC[C@H](N(C)c8ccc(C#N)c(Cl)c8)CC7)nn6)CC5)CC4)c(OC)ccc3nc2-1` [Compound 40, N-((1r,4r)-4-((3-chloro-4-cyanophenyl)(methyl)amino)cyclohexyl)-6-(4-((4-(((S)-4-ethyl-4-hydroxy-9-methoxy-3,14-dioxo-3,4,12,14-tetrahydro-1H-pyrano[3′,4′:6,7]indolizino[1,2-b]quinolin-10-yl)methyl)piperazin-1-yl)methyl)piperidin-1-yl)pyridazine-3-carboxamide formic acid salt], the IC50 in assay [1] was more than 1000 nM; in the assay on LNCap cells (setting [4]), 101 to 1000 nM; with T47D cells (setting [5]), 10 to 100 nM; with IEC6 cells, 101 to 1000 nM; in assay [2], 10 to 100 nM.

`CC[C@@]1(O)C(=O)OCc2c1cc1n(c2=O)Cc2c-1nc1cc(F)c(C)c3c1c2[C@@H](N(C)C(=O)COCCC(=O)N1CCC(CN(C)c2ccc([C@H]4C[C@@]5(C)[C@@H](CC[C@]5(OC(C)=O)C(C)=O)[C@@H]5CCC6=CC(=O)CCC6=C54)cc2)CC1)CC3` [Compound 54]: the figures for the concentration for half-maximal inhibition (IC50) with LNCap cells (setting [4]), in the assay with T47D cells (setting [5]) and in the assay on IEC6 cells were 10 to 100 nM, 101 to 1000 nM and 101 to 1000 nM, respectively.

Consider `CC[C@@]1(OC(=O)N2CCN(CCCCCCN(C)c3ccc([C@H]4C[C@@]5(C)[C@@H](CC[C@]5(OC(C)=O)C(C)=O)[C@@H]5CCC6=CC(=O)CCC6=C54)cc3)CC2)C(=O)OCc2c1cc1n(c2=O)Cc2cc3cc(O)ccc3nc2-1` [Compound 57, (S)-4-ethyl-9-hydroxy-3,14-dioxo-3,4,12,14-tetrahydro-1H-pyrano[3′,4′:6,7]indolizino[1,2-b]quinolin-4-yl 4-(6-((4-((8S,11R,13S,14S,17R)-17-acetoxy-17-acetyl-13-methyl-3-oxo-2,3,6,7,8,11,12,13,14,15,16,17-dodecahydro-1H-cyclopenta[a]phenanthren-11-yl)phenyl)(methyl)amino)hexyl)piperazine-1-carboxylate], for which the IC50 is less than 10 nM in assay [3]; 101 to 1000 nM with LNCap cells (setting [4]); 10 to 100 nM in the assay on T47D cells (setting [5]); more than 1000 nM in the assay with IEC6 cells; 10 to 100 nM in assay [2].

Regarding `CC[C@@]1(O)C(=O)OCc2c1cc1n(c2=O)Cc2c-1nc1cc(F)c(C)c3c1c2[C@@H](NC(=O)OCc1ccc(NC(=O)[C@H](CCCNC(N)=O)NC(=O)[C@@H](NCCCCCCN(C)c2ccc([C@H]4C[C@@]5(C)[C@@H](CC[C@]5(OC(C)=O)C(C)=O)[C@@H]5CCC6=CC(=O)CCC6=C54)cc2)C(C)C)cc1)CC3` [Compound 59], the IC50 in assay [3] was 10 to 100 nM; in assay [1], 101 to 1000 nM; in the assay on LNCap cells (read-out: LNCap (IC50, nM)), 10 to 100 nM; with T47D cells (read-out: T47D (IC50, nM)), 10 to 100 nM; in assay [2], 101 to 1000 nM.

Turning to `CC[C@@]1(O)C(=O)OCc2c1cc1n(c2=O)Cc2cc3c(CN(C)C)c(OC(=O)N(C)Cc4ccc(NC(=O)[C@H](CCCNC(N)=O)NC(=O)[C@@H](NCCCCCCN(C)c5ccc([C@H]6C[C@@]7(C)[C@@H](CC[C@]7(OC(C)=O)C(C)=O)[C@@H]7CCC8=CC(=O)CCC8=C76)cc5)C(C)C)cc4)ccc3nc2-1` [Compound No. 60], the IC50 in assay [3] was less than 10 nM; in assay [1] it was more than 1000 nM; in the assay with LNCap cells (read-out: LNCap (IC50, nM)), more than 1000 nM; in the assay with T47D cells (read-out: T47D (IC50, nM)), more than 1000 nM; in assay [2], 10 to 100 nM.

`CC[C@@]1(O)C(=O)OCc2c1cc1n(c2=O)Cc2cc3c(CN(C)C)c(OC(=O)N4CCN(CCCCCCNc5ccc([C@H]6C[C@@]7(C)[C@@H](CC[C@]7(OC(C)=O)C(C)=O)[C@@H]7CCC8=CC(=O)CCC8=C76)cc5)CC4)ccc3nc2-1` [Compound No. 61, (S)-10-((dimethylamino)methyl)-4-ethyl-4-hydroxy-3,14-dioxo-3,4,12,14-tetrahydro-1H-pyrano[3′,4′:6,7]indolizino[1,2-b]quinolin-9-yl 4-(6-((4-((8S,11R,13S,14S,17R)-17-acetoxy-17-acetyl-13-methyl-3-oxo-2,3,6,7,8,11,12,13,14,15,16,17-dodecahydro-1H-cyclopenta[a]phenanthren-11-yl)phenyl)amino)hexyl)piperazine-1-carboxylate]: the IC50 in assay [3] is less than 10 nM; in assay [1] it was 101 to 1000 nM; in the assay with LNCap cells (read-out: LNCap (IC50, nM)), 101 to 1000 nM; in the assay on T47D cells (read-out: T47D (IC50, nM)), 10 to 100 nM; in assay [2] it was 10 to 100 nM.
